Measurements reported in patent US20050085651A1, “Crystal of N-long-chain acylglycine salt, method of production thereof, and detergent composition using said crystal” (AJINOMOTO CO., INC., priority 2003, published 2005).

Key:
Assay type in all cases: physicochemical
[1] = Scattering (dusting) test of dropped powder; conditions: second Ex. 1 powder, average particle size 20 μm; relative ratio to Comparative Example 2
Protocol: (§1) The milled products of the crystals obtained in Examples 1-3 and the powder obtained in Comparative Example 2 were examined for dusting (scattering) and water solubility and dispersibility. Also, these powders were sieved and their average particle diameters were determined.
Scattering was quantified as described below. A 5 g powder sample was dropped by a distance of 1.2 m from the top of a cylinder (diameter: 12.5 cm). Two seconds after the drop, the scattered powder was sucked from the inlet in the base of the cylinder for 6 seconds using a blower; the powder caught by filter paper (GB100R, manufactured by Advantest Corporation) on the blower surface was weighed. This weight was expressed as a relative ratio to the powder weight in Comparative Example 2.

[2] = Water solubility: time taken to dissolve powder in water; conditions: second Ex. 1 powder, average particle size 20 μm; 1.5 g in 100 g of water at 30° C.
Protocol: as §1
In this test, solubility is defined as time taken to dissolve 1.5 g of powder in 100 g of water at 30° C.

[3] = Average particle diameter by sieving
Protocol: Using the GILSONIC AUTOSIEVER (GA-6, manufactured by GILSON), an about 2 g coarsely milled sample (pass through 425μ mesh) was sieved for 5 minutes and the resulting particles were classified by size; the average particle diameter was calculated from the weights of particles in respective classes.
as §1

[4] = Water dispersibility (lumping) evaluated by five panelists; conditions: second Ex. 1 powder, average particle size 20 μm
Protocol: as §1
Dispersibility was evaluated by five panelists. A 1-gram powder sample was placed in the palm of each panelist and rubbed and examined for lumping in the presence of a small amount of water. Findings were evaluated using a three-grade rating system: good (O) for no lumping, acceptable (Δ) for a small amount of lumping, and poor (x) for a large amount of lumping.

[5] = milled product of crystal (Com. Ex. 2: spray-dried powder), sieved

Row | Scattering [1] | Dissolution rate [2] [s] | Average particle size [3, 5] [μm] | Average particle size ([3]; second Ex. 1 powder (finer)) [μm] | Dispersibility [4] | Compound
1 | 0.87 | 341 | 85 | 20 | ◯ | CCCCCCCCCCCC(=O)NCC(=O)[O-].[Na+] [Ex. 1, N-lauroylglycine Sodium Salt]
2 |  |  | 87 |  |  | CCCCCCCCCCCCCC(=O)NCC(=O)[O-].[Na+] [Ex. 3, N-myristoylglycine Sodium Salt]
